# Assay results from US9266864B2, “VEGFR3 inhibitors” (CANCER THERAPEUTICS CRC PTY LIMITED, priority 2012, dated 2016).
# Target: T1, P397Y-FAK (Homo sapiens, UniProt Q05397)
# T1 construct: endogenous in cells; host or cells: MDA-231-LNA
# Assay: P397Y-FAK Inhibition MSD Platform Cellular Biomarker Assay
# Format: cell-based
# Conditions: MDA-231-LNA cells; concentration not given
# Description: 96-well plates (cat#MA6000, Meso Scale Discovery) are coated with 30 μL/well of mouse monoclonal FAK antibody [63D5] (cat#ab72140, Abcam) pre-diluted in PBS to a concentration of 1 mg/mL. The plates are sealed with adhesive film and incubated for 16 hours at 4° C. The antibody is then flicked out of the plates and 150 μL of 3% [w/v] Blocker A (cat#R93AA-1, Meso Scale Discovery) is added. The plates are resealed with adhesive film and incubated at room temperature on a shaker set at medium speed for 2 hours. The plates are then washed three times with a solution containing 50 mM Tris-HCl pH 7.5, 0.15 M NaCl and 0.02% Tween-20, before cell lysate addition described below.
# Cells are split 1:2 into T150 cell culture flasks 2 days prior to compound treatment. On the day prior to compound treatment, 200 μL media containing 20,000 cells is seeded into all wells of white, clear-bottom, TC treated, μclear, 96-well microtitre plates (cat#655098, Greiner Bio-One), and the plates are incubated at 37° C. and 5% CO2 for 36 hours. 1 μL/well of compound is then added from dilution series prepared in DMSO. […] 150 μL/well of Read Buffer T+Surfactant (cat#R92TC-1, Meso Scale Discovery) is then added, and pFAK-397 levels quantified using a Meso Scale Discovery SECTOR Imager 6000 instrument. […]
# T1 sequence (Q05397 2-1052 limits assumed, stated change not applied): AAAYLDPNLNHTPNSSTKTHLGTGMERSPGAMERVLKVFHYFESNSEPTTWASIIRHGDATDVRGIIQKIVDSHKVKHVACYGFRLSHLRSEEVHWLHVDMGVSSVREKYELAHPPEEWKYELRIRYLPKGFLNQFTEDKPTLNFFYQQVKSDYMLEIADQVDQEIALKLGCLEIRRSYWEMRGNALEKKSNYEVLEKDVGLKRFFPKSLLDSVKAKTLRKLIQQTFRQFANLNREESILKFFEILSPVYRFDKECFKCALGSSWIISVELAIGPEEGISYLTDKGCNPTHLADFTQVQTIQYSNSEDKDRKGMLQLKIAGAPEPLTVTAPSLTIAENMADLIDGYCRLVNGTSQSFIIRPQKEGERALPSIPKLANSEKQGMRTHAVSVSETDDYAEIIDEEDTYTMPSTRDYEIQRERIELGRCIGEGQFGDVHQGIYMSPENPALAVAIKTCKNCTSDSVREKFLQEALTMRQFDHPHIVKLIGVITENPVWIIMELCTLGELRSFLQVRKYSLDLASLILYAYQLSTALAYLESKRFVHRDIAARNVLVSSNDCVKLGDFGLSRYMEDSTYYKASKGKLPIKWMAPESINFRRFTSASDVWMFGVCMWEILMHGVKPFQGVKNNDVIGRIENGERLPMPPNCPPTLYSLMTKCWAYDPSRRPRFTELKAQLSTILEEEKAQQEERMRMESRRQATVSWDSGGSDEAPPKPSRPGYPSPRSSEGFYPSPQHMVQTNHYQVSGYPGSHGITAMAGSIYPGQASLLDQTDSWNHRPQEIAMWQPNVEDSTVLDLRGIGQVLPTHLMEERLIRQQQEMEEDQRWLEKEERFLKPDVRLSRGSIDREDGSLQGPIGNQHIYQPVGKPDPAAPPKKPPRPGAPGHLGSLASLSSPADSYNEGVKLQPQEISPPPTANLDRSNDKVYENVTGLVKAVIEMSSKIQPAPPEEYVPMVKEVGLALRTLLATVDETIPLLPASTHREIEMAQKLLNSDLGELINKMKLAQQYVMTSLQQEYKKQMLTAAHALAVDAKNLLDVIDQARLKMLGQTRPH
smiles,measurement,value
"NC(=O)Cc1ccccc1CCc1nc(Nc2ccc(C3CNC3)cc2)ncc1C(F)(F)F [Compound 20, 2-(2-(2-(2-((4-(azetidin-3-yl)phenyl)amino)-5-(trifluoromethyl)pyrimidin-4-yl)ethyl)phenyl)acetamide]",P397Y-FAK inhibition (percent printed in the IC50 column),<50%
